The source of these data is ChEMBL document CHEMBL6121070, “Covalent-Allosteric Inhibitors: Do We Get the Best of Both Worlds?” (J Med Chem, 2025).

The target in test [1] is T1, Tyrosine-protein phosphatase non-receptor type 11 (Homo sapiens, UniProt Q06124).
T1 sequence (Q06124 whole entry): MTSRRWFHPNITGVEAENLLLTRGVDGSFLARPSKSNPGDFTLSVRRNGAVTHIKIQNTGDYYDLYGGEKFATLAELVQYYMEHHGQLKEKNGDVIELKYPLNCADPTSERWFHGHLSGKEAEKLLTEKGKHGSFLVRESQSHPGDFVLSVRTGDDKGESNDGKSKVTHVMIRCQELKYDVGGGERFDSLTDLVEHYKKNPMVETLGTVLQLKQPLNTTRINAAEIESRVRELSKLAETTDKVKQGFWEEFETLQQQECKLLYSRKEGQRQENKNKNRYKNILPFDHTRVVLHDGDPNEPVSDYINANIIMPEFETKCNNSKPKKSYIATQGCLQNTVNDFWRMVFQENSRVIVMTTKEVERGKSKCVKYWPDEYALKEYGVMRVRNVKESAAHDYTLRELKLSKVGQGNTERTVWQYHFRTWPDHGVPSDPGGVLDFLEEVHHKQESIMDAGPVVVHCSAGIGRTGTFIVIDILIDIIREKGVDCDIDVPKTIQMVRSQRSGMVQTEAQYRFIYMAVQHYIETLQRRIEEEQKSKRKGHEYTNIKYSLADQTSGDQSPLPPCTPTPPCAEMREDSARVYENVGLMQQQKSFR
The test is described as follows: Binding affinity to SHP2 (unknown origin) assessed as inhibition constant.

For test [2], the target named is T2, Tyrosine-protein phosphatase non-receptor type 1 (Homo sapiens, UniProt P18031).
T2 sequence (P18031 whole entry): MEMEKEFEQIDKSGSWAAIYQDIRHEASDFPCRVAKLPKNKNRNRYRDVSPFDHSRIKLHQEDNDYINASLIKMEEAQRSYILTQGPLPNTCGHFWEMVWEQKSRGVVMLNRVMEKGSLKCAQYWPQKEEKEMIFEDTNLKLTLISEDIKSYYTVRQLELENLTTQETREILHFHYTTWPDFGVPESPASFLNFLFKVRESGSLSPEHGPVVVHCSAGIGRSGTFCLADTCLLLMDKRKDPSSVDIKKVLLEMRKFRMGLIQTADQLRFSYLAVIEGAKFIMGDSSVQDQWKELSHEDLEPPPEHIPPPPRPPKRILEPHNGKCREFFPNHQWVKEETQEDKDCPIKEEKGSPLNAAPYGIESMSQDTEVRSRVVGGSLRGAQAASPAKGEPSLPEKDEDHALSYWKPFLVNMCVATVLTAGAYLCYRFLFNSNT
The test is described as follows: Inhibition of 6xHis-tagged human PTP1B catalytic domain using pNPP as substrate by […] based assay.

Test [3] is described as follows: Covalent allosteric inhibition of full length AKT (unknown origin). The arrangement: species or system Homo sapiens.
Test [4] in a line: Non-competitive allosteric inhibition of PTP1B (unknown origin) transformed in Escherichia coli BL21. The arrangement: species or system Homo sapiens.

What is called IC50 is the midpoint of a concentration-inhibition curve. A high value points to weaker potency in that assay. For `C=CC(=O)Nc1ccnc2ccccc12`, in test [1], the Ki came out at 279 µM. The same compound came in with a 50% inhibitory concentration (IC50) in test [2] of 35 µM.
Compound `C=CC(=O)Nc1cccc(C(=O)NC2CCN(Cc3ccc(-c4nc5cc[nH]c(=O)c5cc4-c4ccccc4)cc3)CC2)c1` returned a Ki in test [3] of 0.0069 µM.
Compound `CN(C)CCSSCC(=O)Nc1cc(-c2ccc(F)cc2F)ccc1O` registered a Ki in test [4] of 7.1 µM.
